Measured values reported in patent US11492347B2 (ENYO PHARMA, priority 2018, dated 2022).
pIC50: −log10 of the molar value.

Assays:
[1] = target: T1, CISD1 Gene Product (mitoNEET) (Homo sapiens, UniProt Q9NZ45); assay: Stability of Fe-S cluster binding of purified NEET protein (absorbance 458 nm); type: biochemical; conditions: for Residual cluster bound at end of experiment (Percentage Absorbance 458 nm at time zero): pH 6, at 180 minutes, vehicle control 16%
T1 sequence (Q9NZ45 33-108 limits assumed): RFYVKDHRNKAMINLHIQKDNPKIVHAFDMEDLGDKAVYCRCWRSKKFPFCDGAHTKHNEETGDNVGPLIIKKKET
Experimental: (§1) The modulator effect on the NEET proteins encoded by human CISD1, CISD2, and CISD3 genes by the compounds of the invention has been tested and is reported below. Particularly, the biochemical function of the NEET proteins is measured by the stability of Fe—S cluster binding of the purified NEET proteins.
(§2) The Fe—S cluster binding capacity of NEET proteins is known to be coordinated by four amino-acids in a stretch of 16 (three Cysteine and one Histidine). As the lability of the Fe—S cluster of NEET proteins is sensitive to the environment, cluster stability measurements are one of the measures of interactions of NEET proteins with small molecules and compounds. NEET protein/2Fe-2S cluster stability can be assessed by monitoring the decay in absorbance of its characteristic 458-nm peak (characteristic of the oxidized 2Fe-2S cluster) over time. Each NEET protein (mitoNEET, NAF-1 and Miner 2) was tested for its Fe—S binding in the absence or presence of a compound according to the invention (see table 4 below). The rate of cluster release (time in minutes to achieve 50% loss of bound Fe—S cluster) was compared for each NEET protein in the presence of one of the compounds of the invention (in a 1:3 protein:compound molar ratio) relative to each protein alone.
(§3) At pH 6, all the three NEET proteins (mitoNEET, NAF-1 and Miner 2) have a characteristic rate of loss of the bound Fe—S cluster that can be measured by the decrease of absorbance at wavelength 458 nm over time, using a spectrophotometer. Thus, Bis-Tris buffer (100 mM Bis-Tris pH6, 100 mM Nacl) was used at pH 6 to dilute either DMSO (Blank sample: Bis-Tris Buffer pH 6, 66 μM DMSO), DMSO and one of the three NEET proteins (Control sample: Bis-Tris Buffer pH 6, 66 μM DMSO, 20 μM purified NEET protein) or DMSO, one of the three NEET proteins and a compound of the invention (Test sample: Bis-Tris Buffer pH 6, 66 μM DMSO, 20 μM purified NEET protein, 60 μM compound of the invention).
(§4) A reaction mix containing DMSO diluted in the Bis-Tris Buffer with or without a compound of the invention was prepared. The purified NEET protein was the last component added to the reaction mix which was then aliquoted into 4 replicates in 96 wells plates. The absorbance at wavelength 458 nm was taken at 5 minutes intervals at 37° C. with a spectrofluorimeter. The assay run time for CISD2 gene product (NAF-1) was 500 minutes and 180 minutes for both the CISD1gene product (mitoNEET) and the CISD3 gene product (Miner2).
(§5) In addition to time monitoring, residual bound Fe—S cluster to NEET protein was measured at the final point of the spectrometry assay for each Test sample and compared to the Control sample data (in parenthesis table 4). This residual binding is measured by the differential percentage between the absorbance 458 nm at time zero and the absorbance 458 nm at the end of the experiment (i.e. respectively 500 or 180 minutes as described here above), showing the percentage of NEET protein still able to bind a Fe—S cluster.
(§6) Analysis of the absorbance enables the time for which 50% loss of bound Fe—S cluster is reached (i.e. a 50% absorbance decrease at 458 nm) for each Test sample and each Control sample (in parenthesis table 4) to be determined. The data are then compared to determine whether the compound of the invention stabilizes or destabilizes the NEET protein/Fe—S cluster binding.

[2] = target: T2, CISD3 Gene Product (Miner2) (Homo sapiens, UniProt P0C7P0); assay: as above; type: biochemical; conditions: for Residual cluster bound at end of experiment (Percentage Absorbance 458 nm at time zero): CISD3 gene product 20 μM, pH 6, at 180 minutes, vehicle control 11%
T2 sequence (P0C7P0 15-127): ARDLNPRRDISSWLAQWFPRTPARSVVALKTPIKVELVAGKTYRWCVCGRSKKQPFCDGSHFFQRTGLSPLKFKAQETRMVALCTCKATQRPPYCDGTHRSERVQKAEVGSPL
Experimental: as §1, §2, §3, §4, §5, §6

[3] = target: T3, CISD2 Gene Product (NAF-1) (Homo sapiens, UniProt Q8N5K1); assay: as above; type: biochemical; conditions: for Time (in minutes) to achieve 50% loss of bound cluster (Absorbance 458 nm) / Residual cluster bound at end of experiment (Percentage Absorbance 458 nm at time zero): NAF-1 20 μM, compound 60 μM; for Time (in minutes) to achieve 50% loss of bound cluster (Absorbance 458 nm): pH 6, 37° C., run time 500 minutes, vehicle control 310 or 210; for Residual cluster bound at end of experiment (Percentage Absorbance 458 nm at time zero): pH 6, at 500 minutes, vehicle control 3%
T3 sequence (Q8N5K1 57-135 limits assumed): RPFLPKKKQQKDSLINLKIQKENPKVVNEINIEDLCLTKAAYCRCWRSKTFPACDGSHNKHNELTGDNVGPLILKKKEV
Experimental: as §1, §2, §3, §4, §5, §6

[4] = system: Zika; assay: Antiviral effect in infected Huh7 cells, plaque assay on VeroE6; type: cell-based, ZIKV strain MR766; conditions: Zika virus, Huh-7, MOI of 0,1 pfu per cell, supernatants 48 h post infection
[5] = system: West Nile Virus; assay: as above; type: cell-based, WNV stain New-York 99; conditions: Huh-7, MOI of 0,1 pfu per cell, supernatants 48 h post infection
Experimental: Compound #18 was tested on other viruses. The NEET protein modulators are capable of inhibiting other viruses such as West Nile Virus, Dengue and Zika with a high efficiency.
Assays were performed with the following strains/serotypes: • DENV serotype 2 strain New Guinea C • ZIKV strain MR766 • WNV stain New-York 99
1×10^5 Huh7 cells were infected with DENV, ZIKV, or WNV at a MOI of 0,1 pfu per cell in presence of the test compound. Two hours post-infection the inoculum was removed and cells washed twice with PBS 1×. Fresh medium containing the test compound was added. Supernatants were harvested 48 h post infection, filtered through a 0.45 μm pore membrane and directly used for plaque assays.
VeroE6 cells were infected with serial dilutions of virus supernatants. Two hours post-infection inoculum was replaced by serum-free MEM medium (Gibco, Life Technologies) containing 1.5% carboxymethyl cellulose (Sigma-Aldrich). At different days post infection (day 3 for WNV, day 4 for ZIKV, day 7 for DENV) cells were fixed by addition of formaldehyde to a final concentration of 5%. Cells were stained with crystal violet solution (1% crystal violet, 10% ethanol in H2O) for 30 min at room temperature and extensively rinsed with H2O. Infectious titers were calculated considering the corresponding dilution factor.

[6] = system: H1N1 (influenza A/New Caledonia/20/99); assay: microbe, parasite or virus in culture; type: cell-based; conditions: H1N1, A549, 48 h
[7] = system: Dengue; assay: microbe, parasite or virus in culture; type: cell-based, DENV serotype 2 strain New Guinea C; conditions: Huh-7, 48 h
[8] = system: LXFL 1121; assay: Cytotoxicity, propidium iodide based monolayer assay; conditions: 96 h; LXFL 1121 lung large cell carcinoma, four days of treatment, T/C=50%; read-out: Absolute IC50
Experimental: (§7) The cytotoxicity was tested for compounds of the invention on five different cell-lines, namely LXFL 1121, MAXF 401, MMXF L-636, PRXF PC-3M and UXF 1138 which are respectively lung large cell carcinoma, breast adeno carcinoma, multiple myeloma, prostate adeno carcinoma and uterine sarcoma.
(§8) A working stock solution of the test compounds was prepared in DMSO at a concentration of 33 mM or 8.25 mM, and small aliquots were stored at −20° C. On each day of an experiment, a frozen aliquot of the working stock solution was thawed and stored at room temperature prior to and during treatment.
(§9) All liquid handling steps were performed using the Tecan Freedom EVO 200 platform. First, serial 2-fold dilutions of the 33 mM DMSO working stock solution were done in DMSO. The DMSO dilutions were then diluted 1:22 into cell culture medium in an intermediate dilution plate. Finally, 10 μl taken from the intermediate dilution plate were transferred to 140 μl/well of the final assay plate. Thus, the DMSO serial dilutions were diluted 1:330 with cell culture medium, and the DMSO concentration in the assay was 0.3% v/v.
Cell lines were routinely passaged once or twice weekly and maintained in culture for up to 20 passages. […]
A modified propidium iodide (PI) based monolayer assay was used to assess the anti-cancer activity of the compounds. Briefly, cells were harvested from exponential phase cultures, counted and plated in 96 well flat-bottom microtiter plates at a cell density of 4,000 to 40,000 cells/well dependent on the cell line's growth rate. […] After an incubation period of 1-2 hours at room temperature, fluorescence (FU) was measured using the Enspire Multimode Plate Reader (excitation λ=530 nm, emission k=620 nm) to quantify the amount of attached viable cells.
Drug effects were expressed in terms of the percentage of the fluorescence signal, obtained by comparison of the mean signal in the treated wells with the mean signal of the untreated controls (expressed by the test-versus-control value, T/C−value [%]): […]

[9] = system: MAXF 401; assay: as above; type: cell-based; conditions: Homo sapiens, MAXF401, 96 h; MAXF 401 breast adeno carcinoma, four days of treatment, T/C=50%; read-out: Absolute IC50
Experimental: as §7, §8, §9
(§10) Cell lines were routinely passaged once or twice weekly and maintained in culture for up to 20 passages. Most cell lines were grown at 37° C. in a humidified atmosphere with 5% CO2 in RPMI 1640 medium (25 mM HEPES, with L-glutamine, #FG1385, Biochrom, Berlin, Germany) supplemented with 10% (v/v) fetal calf serum (Sigma, Taufkirchen, Germany) and 0.05 mg/mL gentamicin (Life Technologies, Karlsruhe, Germany).
(§11) A modified propidium iodide (PI) based monolayer assay was used to assess the anti-cancer activity of the compounds. Briefly, cells were harvested from exponential phase cultures, counted and plated in 96 well flat-bottom microtiter plates at a cell density of 4,000 to 40,000 cells/well dependent on the cell line's growth rate. The individual seeding density for each cell line ensure exponential growth conditions over the whole or at least the bigger part of the treatment period. After a 24 h recovery period, to allow the cells to resume exponential growth, 10 μl of culture medium (6 control wells/cell line/plate) or of culture medium with test compounds were added. Compounds were applied at ten concentrations in 2-fold increments in duplicates up to 25 μM or 100 μM and treatment continued for four days. After four days of treatment, cells were next washed with 200 μl PBS to remove dead cells and debris, then 200 μl of a solution containing 7 μg/ml propidium iodide (PI) and 0.1% (v/v) Triton X-100 was added. After an incubation period of 1-2 hours at room temperature, fluorescence (FU) was measured using the Enspire Multimode Plate Reader (excitation λ=530 nm, emission k=620 nm) to quantify the amount of attached viable cells.
(§12) Drug effects were expressed in terms of the percentage of the fluorescence signal, obtained by comparison of the mean signal in the treated wells with the mean signal of the untreated controls (expressed by the test-versus-control value, T/C−value [%]):
(§13) [formula] IC values reported reflect the concentration of the test compound that achieves T/C=50%. Calculation was done by 4 parameter non-linear curve fit.

[10] = system: UXF 1138; assay: as above; type: cell-based; conditions: 96 h; UXF 1138 uterine sarcoma, four days of treatment, T/C=50%; read-out: Absolute IC50
Experimental: as §7, §8, §9, §10, §11, §12, §13

[11] = system: PRXF PC-3M; assay: as above; type: cell-based; conditions: Homo sapiens, 96 h; PRXF PC-3M prostate adeno carcinoma, four days of treatment, T/C=50%; read-out: Absolute IC50
Experimental: as §7, §8, §9, §10, §11, §12, §13

[12] = time to 50% cluster loss changed by more than 25% compared to the Control sample, at the concentrations tested

Row | Structure (SMILES) | Residual cluster bound at end of experiment (Percentage Absorbance 458 nm at time zero) ([1]; mitoNEET 20 μM, compound 60 μM) | Stabiliser or destabiliser of Fe-S cluster binding by CISD1 Gene Product (mitoNEET) [1, 12] | Residual cluster bound at end of experiment (Percentage Absorbance 458 nm at time zero) ([2]; compound 60 μM) | Stabiliser or destabiliser of Fe-S cluster binding by CISD3 Gene Product (Miner2) [2, 12] | Time (in minutes) to achieve 50% loss of bound cluster (Absorbance 458 nm) [3] | Residual cluster bound at end of experiment (Percentage Absorbance 458 nm at time zero) [3] | pIC50 [4] | pIC50 [5] | pIC50 [6] | pIC50 [7] | pIC50 [8] | pIC50 [9] | pIC50 [10] | pIC50 [11] | Time (in minutes) to achieve 50% loss of bound cluster (Absorbance 458 nm) ([1]; mitoNEET 20 μM, compound 60 μM, pH 6, 37° C., run time 180 minutes, vehicle control 80) | Time (in minutes) to achieve 50% loss of bound cluster (Absorbance 458 nm) ([2]; Miner2 20 μM, compound 60 μM, pH 6, 37° C., run time 180 minutes, vehicle control 60) | Stabiliser or destabiliser of Fe-S cluster binding by CISD2 Gene Product (NAF-1) [3, 12]
1 | COc1ccc(C(=O)Nc2sc3c(c2C(=O)O)CCC(C)(C)C3)cc1OC [Compound #18, 2-[(3,4-Dimethoxybenzoyl)amino]-6,6-dimethyl-5,7-dihydro-4H-benzothiophene-3-carboxylic acid] | 62% (16%) | stabilisers | 70% (11%) | Stabilisers | 425 (310) minutes | 42% (3%) | 5.52 | 5.60 | 7.30 | 5.30 |  |  |  |  |  |  | 
2 | CC1(C)CCc2c(sc(NC(=O)c3ccc(N4CCOCC4)cc3)c2C(=O)O)C1 [Compound #22, 6,6-Dimethyl-2-[(4-morpholinobenzoyl)amino]-5,7-dihydro-4H-benzothiophene-3-carboxylic acid] |  |  |  |  |  |  |  |  | 6.92 |  | 6.26 | 6.27 | 6.48 | 6.15 |  |  | 
3 | CC1(C)Cc2c(sc(NC(=O)c3ccc(NC4CCOCC4)cc3)c2C(=O)O)C(C)(C)C1 [Compound #35, 5,5,7,7-Tetramethyl-2-[[4-(tetrahydropyran-4-ylamino)benzoyl]amino]-4,6-dihydrobenzothiophene-3-carboxylic acid] | 26% (16%) |  | 20% (11%) |  | 220 (310) minutes | 13% (3%) |  |  | 7.77 |  |  |  | 6.13 | 6.15 | 85 (80) minutes | 50 (60) minutes | destabilisers
